# Test results published in publication PMC3158843 (ACS chemical biology, 2011).
# No end group written: not given here.
# Key:
# [1] = tested on: JNK on mitochondria of HeLa cells; settings: N-acetylcysteine; earlier data, ref "Recent data from our lab"; cited from earlier work
# [2] = biological target: T1, JNK3α1 (Homo sapiens, UniProt P53779); experiment: Fluorescence polarization assay for peptide binding
# [3] = tested on: recombinant JNK1α1 / mitochondria of JNK-null fibroblasts; set-up: species or system murine; settings: TI-JIP 1µM, Tat-SabKIM1 10µM
# [4] = biological target: JNK; settings: cited from earlier work
# [5] = tested on: HeLa cells; experiment: Cytochrome c release, ELISA; type: cell-based; settings: 25µM anisomycin 4 hours; Tat-SabKIM1 10µM, TI-JIP 1µM, siRNA 50nM
# [6] = biological target: T1, JNK3α1; experiment: Kinase-Glo phosphorylation assay, JNK3α1; type: biochemical; settings: 4-parameter nonlinear regression, 30°C, 60 min
# [7] = tested on: JNK on mitochondria of HeLa cells; type: cell-based
# [8] = tested on: HeLa cells; experiment: Mitochondrial membrane potential, JC-1; type: cell-based
# [9] = tested on: HeLa cells; settings: 25µM anisomycin, 4 hours
# [10] = tested on: c-jun phosphorylation in HeLa cells; experiment: c-jun phosphorylation in anisomycin-treated HeLa cells, Western blot; type: cell-based; settings: 25µM anisomycin, 0-120 min
# [11] = tested on: JNK phosphorylation in HeLa cells; experiment: JNK phosphorylation in anisomycin-treated HeLa cells, Western blot; type: cell-based; settings: 25µM anisomycin
# [12] = biological target: JNK1α1 (active, recombinant) (human) (UniProt P45983)
# [13] = biological target: T1, JNK3α1
compound,measurement,setting,value
CC(=O)N[C@@H](CS)C(=O)O [N-acetylcysteine],JNK translocation to the mitochondria,[1],inhibits JNK translocation to the mitochondria
YGRKKRRQRRRRPKRPTTLNLF-NH2 [Tat-TI-JIP],Kd,[2],450 ± 60 nM
same,affinity of JNK3α1 compared to the Sab peptide,"[2]; greater affinity for JIP peptide vs Sab peptide, fluorescence polarization",25 -fold
same,levels of Sab on isolated mitochondria,[3],did not alter the levels of Sab
same,Ki,"[4]; read-out: Ki, inhibition of JNK activity versus ATF-2, ref [19], [20]",25 nM
same,inhibition of JNK catalytic activity with respect to substrate binding,[4]; ref [19]–[21],potent inhibitor
same,cytochrome c release from the mitochondria,[5],capable of reducing cytochrome c release
same,IC50,"[6]; IC50 -vs-Sab, JNK3α1, substrate Sab",18 ± 9 nM
same,IC50,"[6]; IC50 -vs-c-jun, JNK3α1, substrate c-jun",38 ± 12 nM
same,Sab expression on mitochondria of HeLa cells with peptide,"[7]; 25µM anisomycin 30 min, TI-JIP 1µM, Tat-SabKIM1 10µM",without impacting Sab expression
same,mitochondrial membrane potential (MMP) dissipation,"[8]; JC-1, 25µM anisomycin 45 min, Tat-SabKIM1 10µM, TI-JIP 1µM, siRNA 50nM",decreased the amount of mitochondria with dissipating MMP
COc1ccc(C[C@H]2NC[C@H](O)[C@H]2OC(C)=O)cc1 [anisomycin],cell death,[9],50%
same,decrease in viability,[9]; vs DMSO-treated cells,~ 50%
same,phospho-JNK on the mitochondria,[7]; 25µM anisomycin,as early as 5 minutes and peaked at 30 minutes
same,Sab abundance on the mitochondria,[7]; 25µM anisomycin stress,did not have altered abundance
same,JNK species found on the mitochondria,"[7]; 25µM anisomycin, Western blot",only the 54kDa species was found on the mitochondria
same,increase in percent depolarized mitochondria,"[8]; 25µM anisomycin, 45 min, vs DMSO-treated cells",40–50%
same,c-jun levels,[10],remained constant
same,c-jun phosphorylation on serine 73,[10],"increased at 15–30 minutes, peaking at 45–60 min, then decreasing following 60 minutes"
same,JNK phosphorylation,[11]; 0-120 min,"increased JNK phosphorylation between 15 and 30 minutes, and then JNK phosphorylation decreased after 30 minutes"
same,total JNK abundance,[11]; two hour time course,unchanged
Sab KIM1 peptide: Sab KIM1 motif examined earlier as an inhibitor of JNK mediated c-jun phosphorylation (GFESLSVPSPLDLSGPRVVAPPRRRQRRKKRG; not fully specified; retro-inverso configuration; C-terminal amide (-NH2)),impact on c-jun phosphorylation,[4]; ref [18],did not impact c-jun phosphorylation
Tat-TI-JIP (peptide),IC50 of inhibition of JNK1α1 phosphorylation of c-jun (1–79) (Kinase-Glo assay),[12],34 nM
same,IC50 of inhibition of JNK3α1 phosphorylation of ATF2 (Kinase-Glo assay),[13],27 nM
same,IC50 of inhibition of JNK3α1 phosphorylation of Sab protein (Kinase-Glo assay),[13],18 nM
same,IC50 of inhibition of JNK3α1 phosphorylation of c-jun (Kinase-Glo assay),[13],38 nM
AVVRPGSLDLR [Sab KIM1 motif],inhibition of JNK phosphorylation of c-jun / transcription factors,[4]; ref [15],"little, if any impact"
